In patent US20240228448A1 (Washington University, priority 2021, published 2024):

Assay: Log D7.4 measurement (1-octanol/PBS buffer)
Type: physicochemical
Conditions: pH 7.4, n=3
Description: Partition coefficient was measured by mixing the [^18F]FS1P1 sample with 3 mL each of 1-octanol and buffer that is 0.1 M phosphate and pH equals 7.4 in a test tube. The mixture in the test tube was vortexed for 20 sec followed by centrifugation for 1 min at room temperature. Then 2 mL of the organic layer was transferred to a second test tube, and 1 mL of 1-octanol and 3 mL of PBS buffer were added. The resulting mixture was vortexed for 20 sec, followed by centrifugation for 1 min at room temperature. Then 1 mL of the organic and aqueous layer were taken separately for measurement. The radioactivity content values (count per minute) of two samples (1 mL each) from the 1-octanol and buffer layers were counted using a gamma counter. The partition coefficient Log D7.4 was determined by calculating as the decimal logarithm the ratio of cpm/mL between 1-octanol and PBS buffer. The measurements were repeated three times. The value of the partition coefficient is 2.62±0.31.

With Cc1ccccc1-c1ccc(-c2nc(-c3ccc(CN(C)CCC(=O)O)c([18F])c3)no2)cc1C(F)(F)F [[^18F]FS1P1] the “Log D7.4” value was 2.62±0.31 and the logD was 2.62 ± 0.31.
